These results are taken from US20230373934A1, “ANDROGEN RECEPTOR MODULATORS AND METHODS FOR THEIR USE” (ESSA Pharma, Inc., priority 2022, published 2023).

SMILES strings stand for the structures. Some results are limits rather than exact numbers.

The target of data set [1] is T1, androgen receptor (AR) (Homo sapiens, UniProt P10275, T878A).
T1 construct: endogenous in cells; host or cells: LNCaP
T1 sequence (P10275 1-920 T878A): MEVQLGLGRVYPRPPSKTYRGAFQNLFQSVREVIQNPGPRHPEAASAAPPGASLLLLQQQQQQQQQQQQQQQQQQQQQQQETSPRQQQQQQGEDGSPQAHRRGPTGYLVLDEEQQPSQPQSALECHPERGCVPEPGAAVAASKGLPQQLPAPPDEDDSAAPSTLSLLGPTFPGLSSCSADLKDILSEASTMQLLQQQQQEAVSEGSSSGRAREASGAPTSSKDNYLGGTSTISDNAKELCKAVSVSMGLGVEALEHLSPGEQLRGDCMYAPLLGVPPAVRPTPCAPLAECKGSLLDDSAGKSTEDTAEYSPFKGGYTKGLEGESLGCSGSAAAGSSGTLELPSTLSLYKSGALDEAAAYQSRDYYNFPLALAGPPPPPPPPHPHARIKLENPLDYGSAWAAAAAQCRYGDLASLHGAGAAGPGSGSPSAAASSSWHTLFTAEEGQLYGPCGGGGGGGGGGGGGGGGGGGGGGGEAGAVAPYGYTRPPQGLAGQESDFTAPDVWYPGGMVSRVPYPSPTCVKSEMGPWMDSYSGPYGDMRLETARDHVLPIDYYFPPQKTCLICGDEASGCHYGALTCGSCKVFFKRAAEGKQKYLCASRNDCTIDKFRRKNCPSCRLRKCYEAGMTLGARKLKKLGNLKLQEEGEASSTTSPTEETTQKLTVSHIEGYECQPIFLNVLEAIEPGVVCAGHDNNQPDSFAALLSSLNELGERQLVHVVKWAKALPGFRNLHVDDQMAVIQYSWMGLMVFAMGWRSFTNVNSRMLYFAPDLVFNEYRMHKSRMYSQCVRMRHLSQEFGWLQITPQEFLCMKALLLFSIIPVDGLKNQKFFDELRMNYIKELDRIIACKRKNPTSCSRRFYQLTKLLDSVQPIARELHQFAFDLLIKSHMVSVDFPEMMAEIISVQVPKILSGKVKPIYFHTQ
In words: Androgen-induced PSA-luciferase assay, Luciferase Assay A (LNCaP transiently transfected with PSA (6.1 kb)-luciferase reporter). As to conditions: LNCaP cells, 1 h pretreatment, R1881 (1 nM) 24 h, read-out: PSA-Luc IC50 Range. It counts as cell-based. The essentials: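 LNCaP cells transfected 24 h with PSA (6.1 kb)-luciferase reporter, pretreated 1 h with compound, then stimulated 24 h with R1881 (1 nM). Firefly luminescence in lysates normalized to protein content; IC50 from activity relative to R1881-induced vehicle control.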
A general note: A reporter such as luciferase makes a cellular process visible.

Data set [2] is described as follows: Microsomal stability assay, liver microsome half-life (monkey). It counts as in vitro ADME. The following applies: pH 7.4; monkey liver microsomes 0.5 mg/mL + NADPH, 1 μM compound, 37° C; read-out: Liver microsome + NADPH T½ (min) Monkey. The text has this: (§1) Microsomal Stability Assay: Microsomal stability assay is a widely used in vitro model to characterize the metabolic conversion by phase I enzymes, such as cytochrome P450 (CYP) enzymes. Since metabolism is known to be highly variable in different species, microsomal stability assay is commonly run in multiple species. Metabolic stability of testing compound can be evaluated using human, rat, mouse, or other animal liver or intestine microsomes to predict intrinsic clearance.
(§2) The assay was carried out in 96-well microtiter plates at 37° C. Reaction mixtures (25 μL) contained a final concentration of 1 μM test compound, 0.5 mg/mL liver microsomes protein, and 1 mM NADPH and/or 1 mM UDPGA (with alamethicin) in 100 mM potassium phosphate, pH 7.4 buffer with 3 mM MgCl2. The incubation was done with N=1, but duplicate incubation at each time point can be prepared if necessary. At each of the time points (for example, 0, 15, 30, and 60 minutes), 150 μL of quench solution (100% acetonitrile with 0.1% formic acid) with internal standard was transferred to each well. Besides the zero minute controls, mixtures containing the same components except the NADPH can also be prepared as the negative control. Verapamil was included as a positive control to verify assay performance. Plates were sealed, vortexed, and centrifuged at 4° C. for 15 minutes at 4000 rpm. The supernatant is transferred to fresh plates for LC/MS/MS analysis.
(§3) Summarized conditions: [Compound]=1 μM, [LM]=0.5 mg/mL, [NADPH]=1 mM and/or [UDPGA]=1 mM, Buffer=100 mM Potassium Phosphate, pH 7.4 with 3 mM MgCl2, Time=0, 15, 30, and 60 min, and Temperature=37° C.
(§4) All samples were analyzed on LC/MS/MS using an AB Sciex API 4000 instrument, coupled to a Shimadzu LC-20AD LC Pump system. Analytical samples were separated using a Waters Atlantis T3 dC18 reverse phase HPLC column (20 mm×2.1 mm) at a flow rate of 0.5 mL/min. The mobile phase consisted of 0.1% formic acid in water (solvent A) and 0.1% formic acid in 100% acetonitrile (solvent B).
(§5) The extent of metabolism is calculated as the disappearance of the test compound, compared to the 0-min time incubation. Initial rates are calculated for the compound concentration and used to determine half-life (t1/2).
A general note: Microsomes from liver hold many membrane-bound enzymes, among them those of drug oxidation.

Data set [3] is described as follows: Microsomal stability assay, liver microsome half-life (dog). The data set is classed as in vitro ADME. As to conditions: pH 7.4; dog liver microsomes 0.5 mg/mL + NADPH, 1 μM compound, 37° C; read-out: Liver microsome + NADPH T½ (min) Dog.
Source text: as §1, §2, §3, §4, §5

Data set [4] is described as follows: Microsomal stability assay, liver microsome half-life (rat). The data set is classed as in vitro ADME. The following applies: pH 7.4; rat liver microsomes 0.5 mg/mL + NADPH, 1 μM compound, 37° C; read-out: Liver microsome + NADPH T½ (min) Rat.
Source text: as §1, §2, §3, §4, §5

Data set [5] in a line: Microsomal stability assay, liver microsome half-life (human). It counts as in vitro ADME. The following applies: pH 7.4; human liver microsomes 0.5 mg/mL + NADPH, 1 μM compound, 37° C; read-out: Liver microsome + NADPH T½ (min) Human.
Source text: as §1, §2, §3, §4, §5

Data set [6] can be described thus: Microsomal stability assay, liver microsome half-life (mouse). The following applies: pH 7.4; mouse liver microsomes 0.5 mg/mL + NADPH, 1 μM compound, 37° C; read-out: Liver microsome + NADPH T½ (min) Mouse. It counts as in vitro ADME.
Source text: as §1, §2, §3, §4, §5

For data set [7], the target named is T2, androgen receptor (AR) (Homo sapiens, UniProt P10275).
T2 sequence (P10275 1-920 T878A): T1 sequence (P10275 1-920 T878A)
In words: Androgen-induced PSA-luciferase assay, Luciferase Assay B (cells stably expressing ARR2PB or PSA-firefly luciferase reporter, 384-well). The data set is classed as cell-based. As to conditions: Luciferase Assay B (Compounds A186-A219 and A221-A245); stable luciferase reporter cells, 1 h pretreatment, R1881 24 h, serum-free; read-out: PSA-Luc IC50 Range. On the procedure:
Luciferase Assay B: Cells stably expressing probasin promoter (ARR2PB) or human prostate-specific antigen (PSA)-firefly luciferase reporter were plated in poly-D-lysine-coated 384-well plates. 48 h after plating, cells were pretreated with vehicle or compounds for 1 h before adding R1881 under serum-free and phenol red-free conditions and then further incubated for 24 h. R1881 was added only for LNCaP cells. Firefly luciferase activities were determined by EnVision plate reader (Perkinemer) using the Steady-Glo Luciferase Reporter Assay System (Promega). Values were normalized to protein content. GraphPad Prism graphing software was used to calculate IC50 values. Luciferase Assay B was run for Compounds A186-A219 and A221-A245 in Table 2.
Statistical analyses were performed using GraphPad Prism (Version 6.01 for Windows; La Jolla, CA, USA). Comparisons between treatment and control groups were compared using Two-Way ANOVA with post-hoc Dunnett's and Tukey's tests. Differences were considered statistically significant at P values less than 0.05.

Take `CS(=O)(=O)N[C@H]1C[C@H](n2cc(-c3ccc(N(CC(F)(F)F)c4cc(Cl)c(OCCCl)c(C#N)c4)cc3)cn2)C1` [Compound A84]: in data set [1], the IC50 fell in the range of 500 to 2000 nM. Besides, the half-life at 1 μM was 100 min in data set [2]; over 120 min in data set [3]; over 120 min in data set [4]; 101 min in data set [5]; over 120 min in data set [6].
As to `CS(=O)(=O)Nc1cnc2cc(-c3ccc(N(c4cc(Cl)c(OC5CC5)c(C#N)c4)C4CC4)cc3)ccc2n1` [Compound A177], the IC50 in data set [1] fell in the range of 500 to 2000 nM. The half-life at 1 μM in data set [2], in data set [3], in data set [4], in data set [5] and in data set [6] was over 120 min in each case.
Consider `CS(=O)(=O)NC1CN(c2cnc(-c3ccc(Oc4cc(Cl)c(OCCCl)c(C#N)c4)cc3)cn2)C1` [Compound A94], for which the concentration for half-maximal inhibition (IC50) in data set [1] fell in the range of 500 to 2000 nM. Moreover, the half-life at 1 μM in data set [2] was 117 min; in data set [3], over 120 min; in data set [4], over 120 min; in data set [5] it was over 120 min; in data set [6] it was over 120 min.
Turning to `CS(=O)(=O)Nc1cnc2cc(-c3ccc(Oc4cc(Cl)c(OCCCl)c(C#N)c4)cc3)ccc2n1` [Compound A16, N-(6-(4-(3-chloro-4-(2-chloroethoxy)-5-cyanophenoxy)phenyl)quinoxalin-2-yl)methanesulfonamide], the half-maximal inhibitory concentration (IC50) in data set [1] was 500 to 2000 nM. For the same compound, the half-life at 1 μM in data set [2], in data set [3], in data set [4], in data set [5] and in data set [6] was over 120 min in each case.
Consider `[2H]C([2H])([2H])N(c1ccc(-c2ccc3nc(NS(C)(=O)=O)cnc3c2)cc1)c1cc(Cl)c(OCCCl)c(C#N)c1` [Compound A145], for which, in data set [1], the IC50 was in the range of 500 to 2000 nM. In addition, the half-life at 1 μM in data set [2], in data set [3], in data set [4], in data set [5] and in data set [6] was over 120 min each time.
Consider `CC(C)(c1ccc(-c2ccc(CNS(C)(=O)=O)nc2)cc1)c1cc(Cl)c(OCCCl)c(C#N)c1` [Compound A1], for which the half-inhibitory concentration (IC50) in data set [1] was 500 to 2000 nM. For the same compound, the half-life at 1 μM was over 120 min in data set [2]; 62 min in data set [3]; 61 min in data set [4]; over 120 min in data set [5]; over 120 min in data set [6].
Regarding `CS(=O)(=O)Nc1cnc2cc(-c3ccc(Oc4cc(Cl)c(OC5CC5)c(C#N)c4)cc3)ccc2n1` [Compound A97, N-(6-(4-(3-chloro-5-cyano-4-cyclopropoxyphenoxy)phenyl)quinoxalin-2-yl) methanesulfonamide], the IC50 in data set [1] was 500 to 2000 nM. Moreover, the half-life at 1 μM in data set [2], in data set [3], in data set [4], in data set [5] and in data set [6] was over 120 min each time.
For `COc1c(Cl)cc(Oc2ccc(-c3ccc4nc(NS(C)(=O)=O)cnc4c3)cc2)cc1C#N` [Compound A43], the half-inhibitory concentration (IC50) in data set [1] was under 500 nM. Also, the half-life at 1 μM in data set [2], in data set [3], in data set [4], in data set [5] and in data set [6] was over 120 min each time.
On to `CC(C)(c1ccc(OC[C@H](O)CNS(C)(=O)=O)cc1)c1cc(Cl)c(OC[C@H](O)CCl)c(Cl)c1` [X, reference compound], for which, in data set [5], the half-life at 1 μM was over 120 min.
Take `CS(=O)(=O)Nc1nccc(N2CCN(c3ccc(Oc4cc(Cl)c(OC5CC5)c(C#N)c4)cc3)CC2)n1` [Compound A230]: the concentration for half-maximal inhibition (IC50) in data set [7] is under 500 nM.
On to `CC(=O)N1CCN(c2nccc(COc3ccc(C(C)(C)c4cc(Cl)c(OC5CC5)c(C#N)c4)cc3)n2)CC1` [Compound A244], for which the half-maximal inhibitory concentration (IC50) in data set [7] was under 500 nM.
On the same count and under the same terms, with `CC(=O)N1CCN(c2cnc3cc(-c4ccc(Oc5cc(Cl)c(OC6CC6)c(C#N)c5)cc4)ccc3n2)CC1` [Compound A242] the figure was 500 to 2000 nM; with `CS(=O)(=O)Nc1cncc(N2CCN(c3ccc(Oc4cc(Cl)c(OC5CC5)c(C#N)c4)cc3)CC2)n1` [Compound A229], over 2000 nM.
Turning to `CNC(=O)c1ccc(N2C(=S)N(c3ccc(C#N)c(C(F)(F)F)c3)C(=O)C2(C)C)cc1F` [Enzalutamide, enzalutamide, reference compound], the half-life at 1 μM in data set [2], in data set [3], in data set [4], in data set [5] and in data set [6] was over 120 min throughout.
For `CN(c1ccc(OCc2ccnc(NS(C)(=O)=O)n2)cc1)c1cc(Cl)c(OC2CC2)c(C#N)c1` [Compound A237], the IC50 in data set [7] lay in the range of 500 to 2000 nM.
Same read-out and setting: the figure for `CS(=O)(=O)NC12CC(COc3ccc(N(CC(F)(F)F)c4cnc(OC5CC5)c(C#N)c4)cc3)(C1)C2` [Compound A234] is 500 to 2000 nM; for `CS(=O)(=O)NCc1nccc(COc2ccc(N(CC(F)(F)F)c3cc(Cl)c(OC4CC4)c(C#N)c3)cc2)n1` [Compound A221] it is under 500 nM.

A word on the IC50: it is the concentration that inhibits the measured activity by half.
